Several values for one entry are separate records, joined by “and”; a condition that tells them apart may be missing. Identical values can stand only once.

One series deals with AMPA receptors. The series is described as follows: Electrophysiology: potentiation of AMPA-evoked membrane currents in Xenopus oocytes injected with rat cortical poly(A)+ RNA (two-electrode voltage clamp). It counts as cell-based. To be noted: 10 μM AMPA; for AMPA positive potentiation 2-fold @ μM (concentration required for 2-fold potentiation of the AMPA response): rat cortical poly(A)+ RNA, holding potential -70 mV. As to the method:
FIG. 1 depicts a graph showing the concentration-effect relationship for the potentiation of AMPA-evoked currents in Xenopus oocytes by the compound of Example 4. Xenopus oocytes were injected with rat cortical poly (A+) RNA and membrane currents were measured by a standard, two-microelectrode voltage clamp method. A solution of AMPA (10 μM) was superfused through the recording chamber in the absence (control) or presence of increasing concentrations of the compound of Example 4. “I” is membrane current.
The novel compounds of the invention were assessed by electrophysiological assays in Xenopus oocytes expressing rat […] poly(A)^+ RNA (see Keana et al, J. Med. Chem. 38:4367-4379 (1995)) or in cultured rat cortical neurons (see Woodward et al., Mol. Pharmacol. 47:568-581 (1995)) for AMPA receptor activity. The compounds that potentiate currents across the oocyte membrane are expected to be useful as cognitive enhancers or for the treatment of schizophrenia, myoclonus or neurodegenerative diseases such as Parkinson's disease and Alzheimer's disease. Thus, the present invention is directed to compounds that are positive modulators of AMPA receptors.
Total RNA was prepared from rat cerebral cortex by homogenization in urea/LiCl followed by phenol/chloroform extraction. Polyadenylated (poly A^+) mRNA was isolated from total cellular RNA by oligo-dT cellulose chromatography. Xenopus oocytes were prepared by the method of Woodward et al. (Mol. Pharmacol. 41, 89-103 (1992)). Oocytes were microinjected with approximately 50 ng of cortical poly(A)^+ RNA and stored in Barth's medium (containing in mM: NaCl, 88; KCl, 1; CaCl2, 0.41; Ca(NO3)2, 0.33; MgSO4, 0.82; NaHCO3, 2.4; HEPES 5; pH 7.4, with 0.1 mg/ml gentamycin sulphate) for 6 days prior to recording. Membrane current responses were recorded in frog Ringer solution containing (in mM): NaCl, 115; KCl, 2; CaCl2, 1.8; HEPES, 5; pH 7.4, or in a nominally Ca^2+-free Ringer solution containing (in mM): NaCl, 115; KCl, 2; BaCl2, 1.8; HEPES, 5; pH 7.4. Electrical recordings were made using a conventional two-electrode voltage clamp (Dagan TEV-200). The oocyte was placed in a 5 ml chamber lined with nylon mesh, impaled with two micro-electrodes and voltage-clamped at a holding potential of −70 mV. A scaled up linear array system (Benveniste and Mayer, J. Physiol. 464, 131-163 (1993)) was used to superfuse the oocyte in Ringer solution and to apply drugs and wash solutions. A control concentration (10 μM) of AMPA was applied to the oocyte to determine a baseline membrane current response. The modulation of this response by AMPA potentiators was measured by applying increasing concentrations of the potentiator in Ringer solution for ˜30 s followed by coapplication of the potentiator with 10 μM AMPA. The resulting membrane current responses were analyzed by sigmoidal curve fitting (Origin, Microcal Software, Inc.).
In general terms: In two-electrode clamp one electrode senses voltage and the other passes current.

For the molecule `CC1(C)CC(=O)C2=C(C1)OC(N)=C(C#N)C2c1ccncc1` (stereo not drawn) [Example 13, 2-Amino-3-cyano-7,7-dimethyl-4-(4-pyridyl)-5-oxo-5,6,7,8-tetrahydro-4H-1-benzopyran], the melting point (in general, the temperature of the solid-liquid transition) was 222 to 224 °C. In the series on AMPA receptors, the “AMPA positive potentiation 2-fold @ μM (concentration required for 2-fold potentiation of the AMPA response)” value (from here on “AMPA positive potentiation 2-fold @ μM”) worked out at 60.0 µM.

Turning to `CC1(C)CC(=O)C2=C(C1)OC(N)=C(C#N)C2c1ccc2ccccc2c1` (stereo not drawn) [Example 18, 2-Amino-3-cyano-7,7-dimethyl-4-(2-naphthyl)-5-oxo-5,6,7,8-tetrahydro-4H-1-benzopyran], the melting point was 259 to 262 °C. Also, the “AMPA positive potentiation 2-fold @ μM” value with AMPA receptors was found to be 1.6 µM.

On to `COc1ccc(C2C(C#N)=C(N)OC3=C2C(=O)CC(C)(C)C3)cc1` (stereo not drawn) [Example 1, 2-Amino-3-cyano-7,7-dimethyl-4-(4-methoxyphenyl)-5-oxo-5,6,7,8-tetrahydro-4H-1-benzopyran], for which the “AMPA positive potentiation 2-fold @ μM” value in the series with AMPA receptors turned out to be 7.0 µM.

`CC1(C)CC(=O)C2=C(C1)OC(N)=C(C#N)C2c1ccc(C#N)cc1` (stereo not drawn) [Example 16, 2-Amino-3-cyano-4-(4-cyanophenyl)-7,7-dimethyl-5-oxo-5,6,7,8-tetrahydro-4H-1-benzopyran] displayed a melting point of 227 to 230 °C. In the series on AMPA receptors, the “AMPA positive potentiation 2-fold @ μM” value amounted to 20.0 µM.

Consider `COc1ccc(C2C(C#N)=C(N)OC3=C2C(=O)CCC3)cc1` (stereo not drawn) [Example 5, 2-Amino-3-cyano-4-(4-methoxyphenyl)-5-oxo-5,6,7,8-tetrahydro-4H-1-benzopyran], for which the melting point is 209 to 212 °C. The “AMPA positive potentiation 2-fold @ μM” value in the series on AMPA receptors is 35.0 µM.

Molecule `CC1(C)CC(=O)C2=C(C1)OC(N)=C(C#N)C2c1ccc(F)cc1` (stereo not drawn) [Example 17, 2-Amino-3-cyano-7,7-dimethyl-4-(4-fluorophenyl)-5-oxo-5,6,7,8-tetrahydro-4H-1-benzopyran] registered a melting point of 189 to 193 °C. Also, the “AMPA positive potentiation 2-fold @ μM” value in the series on AMPA receptors amounted to 27.0 µM.

On to `CC1(C)CC(=O)C2=C(C1)OC(N)=C(C#N)C2c1cccc(O)c1` (stereo not drawn) [Example 7, 2-Amino-3-cyano-7,7-dimethyl-4-(3-hydroxyphenyl)-5-oxo-5,6,7,8-tetrahydro-4H-1-benzopyran], for which the melting point was in the range of 214 to 217 °C. In the series on AMPA receptors, the “AMPA positive potentiation 2-fold @ μM” value is 12.0 µM.

Regarding `Cc1cc(C)c(C2C(C#N)=C(N)OC3=C2C(=O)CC(C)(C)C3)c(C)c1` (stereo not drawn) [Example 2, 2-Amino-3-cyano-7,7-dimethyl-4-(2,4,6-trimethylphenyl)-5-oxo-5,6,7,8-tetrahydro-4H-1-benzopyran], the “AMPA positive potentiation 2-fold @ μM” value in the series with AMPA receptors turned out to be 4.0 µM.

On to `CC1(C)CC(=O)C2=C(C1)OC(N)=C(C#N)C2c1ccc(Cl)cc1` (stereo not drawn) [Example 6, 2-Amino-3-cyano-4-(4chlorophenyl)-7,7-dimethyl-5-oxo-5,6,7,8-tetrahydro-4N-1-benzopyran], for which the “AMPA positive potentiation 2-fold @ μM” value in the series on AMPA receptors was determined as 18.0 µM.

As for `COc1cc(C2C(C#N)=C(N)OC3=C2C(=O)CC(C)(C)C3)cc2c1OCO2` (stereo not drawn) [Example 14, 2-Amino-3-cyano-7,7-dimethyl-4-(3-methoxy-4,5-methylenedioxyphenyl)-5-oxo-5,6,7,8-tetrahydro-4H-1-benzopyran], the “AMPA positive potentiation 2-fold @ μM” value in the series on AMPA receptors is 12.0 µM.

As for “2-Amino-3-cyano-7,7-dimethyl-4-(3,4-difluoromethylenedioxyphenyl)-5-oxo-5,6,7,8-tetrahydro-4H-1-benzopyran [Example 15]”, the “AMPA positive potentiation 2-fold @ μM” value with AMPA receptors was 18.0 µM.

`CC1(C)CC(=O)C2=C(C1)OC(N)=C(C#N)C2c1ccccc1` (stereo not drawn) [Example 3, 2-Amino-3-cyano-7,7-dimethyl-4-phenyl-5-oxo-5,6,7,8-tetrahydro-4H-1-benzopyran]: the “AMPA positive potentiation 2-fold @ μM” value with AMPA receptors was found to be 12.0 µM.

Regarding `Cc1ccc(C2C(C#N)=C(N)OC3=C2C(=O)CC(C)(C)C3)cc1` (stereo not drawn) [Example 8, 2-Amino-3-cyano-7,7-dimethyl-4-(4-methylphenyl)-5-oxo-5,6,7,8-tetrahydro-4H-1-benzopyran], the “AMPA positive potentiation 2-fold @ μM” value in the series on AMPA receptors is 12.0 µM.

Turning to `COc1cccc(C2C(C#N)=C(N)OC3=C2C(=O)CC(C)(C)C3)c1` (stereo not drawn) [Example 11, 2-Amino-3-cyano-7,7-dimethyl-4-(3-methzoxyphenyl)-5-oxo-5,6,7,8-tetrahydro-4H-1-benzopyran], in the series on AMPA receptors, the “AMPA positive potentiation 2-fold @ μM” value was determined as 6.0 µM.

On to `CN(C)c1ccc(C2C(C#N)=C(N)OC3=C2C(=O)CC(C)(C)C3)cc1` (stereo not drawn) [Example 9, 2-Amino-3-cyano-7,7-dimethyl-4-(4-dimethylaminophenyl)-5-oxo-5,6,7,8-tetrahydro-4H-1-benzopyran], for which the melting point lay in the range of 221 to 224 °C. The “AMPA positive potentiation 2-fold @ μM” value in the series on AMPA receptors is 12.0 µM.

`CC1(C)CC(=O)C2=C(C1)OC(N)=C(C#N)C2c1ccc(O)cc1` (stereo not drawn) [Example 10, 2-Amino-3-cyano-7,7-dimethyl-4-(4-hydroxyphenyl)-5-oxo-5,6,7,8-tetrakydro-4H-1-benzopyran]: in the series with AMPA receptors, the “AMPA positive potentiation 2-fold @ μM” value worked out at 14.0 µM.

As to `CC1(C)CC(=O)C2=C(C1)OC(N)=C(C#N)C2c1ccc2c(c1)OCO2` (stereo not drawn) [Example 4, 2-Amino-3-cyano7,7-dimethyl-4-(3,4-methylenedioxyphenyl)-5-oxo-5,6,7,8-tetrahydro-4H-1-benzopyran], the EC50 in the series with AMPA receptors (sigmoidal curve fitting, read-out: half-maximally effective concentration for potentiation of the AMPA response) amounted to 16.6 µM. Besides, the “maximal potentiation of the AMPA response” value in the series on AMPA receptors (at 100 μM compound) came out at 11 fold. Also, the “AMPA positive potentiation 2-fold @ μM” value with AMPA receptors is 4 µM and 4.0 µM.

`CC1(C)CC(=O)C2=C(C1)OC(N)=C(C#N)C2c1ccc([N+](=O)[O-])cc1` (stereo not drawn) [Example 12, 2-Amino-3-cyano-7,7-dimethyl-4-(4-nitrophenyl)-5-oxo-5,6,7,8-tetrakydro-4H-1-benzopyran]: the “AMPA positive potentiation 2-fold @ μM” value in the series on AMPA receptors turned out to be 60.0 µM.

Values taken from patent publication US6680332B1, “Substituted 5-oxo-5,6,7,8-tetrahydro-4H-1-benzopyrans and benzothiopyrans and the use thereof as potentiators of AMPA” (Euro-Celtique S.A., priority 1999, dated 2004).
